# Assays:
# human NTCP = target: T1, human NTCP (Homo sapiens, UniProt Q14973); test: Cellular transport assay, HEK-293 cells expressing human NTCP; details: positive substrate 20 μM, 10 min; human NTCP
# T1 sequence (Q14973 1-349): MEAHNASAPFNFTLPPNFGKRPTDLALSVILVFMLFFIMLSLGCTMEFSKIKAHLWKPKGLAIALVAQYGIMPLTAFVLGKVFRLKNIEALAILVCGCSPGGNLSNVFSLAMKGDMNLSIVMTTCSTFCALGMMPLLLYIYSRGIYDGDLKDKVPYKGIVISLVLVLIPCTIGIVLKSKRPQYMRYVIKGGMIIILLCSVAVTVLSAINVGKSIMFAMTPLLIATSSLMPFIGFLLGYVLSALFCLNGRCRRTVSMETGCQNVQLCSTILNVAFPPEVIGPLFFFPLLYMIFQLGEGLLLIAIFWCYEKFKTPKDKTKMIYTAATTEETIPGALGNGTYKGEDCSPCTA
# human BSEP = human BSEP (Homo sapiens, UniProt O95342); test: Vesicular transport assay, inside-out membrane vesicles expressing human BSEP; details: positive substrate 20 μM, 10 min; human BSEP
# Sequence of human BSEP (O95342 whole entry): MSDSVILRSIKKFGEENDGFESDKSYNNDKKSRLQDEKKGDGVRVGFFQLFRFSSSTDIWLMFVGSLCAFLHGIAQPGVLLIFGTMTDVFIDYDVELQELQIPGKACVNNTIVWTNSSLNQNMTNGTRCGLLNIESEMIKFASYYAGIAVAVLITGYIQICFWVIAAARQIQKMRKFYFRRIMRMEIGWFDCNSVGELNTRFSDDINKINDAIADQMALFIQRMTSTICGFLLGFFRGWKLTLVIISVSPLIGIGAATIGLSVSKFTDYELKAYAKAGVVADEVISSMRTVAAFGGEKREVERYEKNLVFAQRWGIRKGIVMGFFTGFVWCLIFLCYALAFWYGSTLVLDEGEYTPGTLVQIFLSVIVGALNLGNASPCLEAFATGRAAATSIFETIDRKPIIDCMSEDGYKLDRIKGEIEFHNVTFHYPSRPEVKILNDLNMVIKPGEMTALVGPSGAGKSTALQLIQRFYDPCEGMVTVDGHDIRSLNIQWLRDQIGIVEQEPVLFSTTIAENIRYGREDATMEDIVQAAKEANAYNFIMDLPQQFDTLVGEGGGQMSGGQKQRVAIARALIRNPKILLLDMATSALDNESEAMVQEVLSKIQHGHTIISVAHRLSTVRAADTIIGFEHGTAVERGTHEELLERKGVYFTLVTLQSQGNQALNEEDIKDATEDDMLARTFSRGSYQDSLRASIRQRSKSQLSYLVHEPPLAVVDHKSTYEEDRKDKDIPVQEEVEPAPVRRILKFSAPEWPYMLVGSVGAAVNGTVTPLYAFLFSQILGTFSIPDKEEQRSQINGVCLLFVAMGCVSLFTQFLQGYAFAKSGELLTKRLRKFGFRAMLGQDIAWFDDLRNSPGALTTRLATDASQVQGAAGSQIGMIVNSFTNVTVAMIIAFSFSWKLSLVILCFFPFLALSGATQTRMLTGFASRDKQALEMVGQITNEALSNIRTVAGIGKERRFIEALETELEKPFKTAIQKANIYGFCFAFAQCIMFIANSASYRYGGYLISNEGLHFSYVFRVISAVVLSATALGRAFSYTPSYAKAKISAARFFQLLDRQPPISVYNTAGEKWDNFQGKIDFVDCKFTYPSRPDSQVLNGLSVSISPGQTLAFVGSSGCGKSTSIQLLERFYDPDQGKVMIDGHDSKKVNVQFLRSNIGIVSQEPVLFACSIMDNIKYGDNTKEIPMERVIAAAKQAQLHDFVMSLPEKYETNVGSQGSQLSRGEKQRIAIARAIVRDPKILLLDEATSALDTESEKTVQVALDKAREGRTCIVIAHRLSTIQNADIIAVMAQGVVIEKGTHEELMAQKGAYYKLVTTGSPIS
# Description: (§1) Inside-out membrane vesicles (5 mg protein/mL), prepared from insect cells expressing human multidrug resistance-associated protein (MRP) 2, MRP3, MRP4, breast cancer resistance protein (BCRP), bile salt export pump (BSEP), and multidrug resistance protein (MDR) one and rat Mrp2, Mrp4, Bcrp, and Bsep, and vesicles (5 mg protein/mL; prepared from the insect cells expressing no ABC transporter; serving as negative control) were obtained from Genomembrane (Kanazawa, Japan).
# (§2) The test Danshen compounds at 100 µM final concentration were separately incubated with the membrane vesicles for 10 min. Buffer C (50 mM MOPS-tris, 70 mM KCl, 7.5 mM MgCl2, pH 7.0) was used for preincubation and incubation, while buffer D (40 mM MOPS-tris, 70 mM KCl, pH 7.0) was used for vesicle washing. The transport rate (pmol/mg protein/min) of the test Danshen compound was calculated using Equation (2): Transport=(CV×VV)/T/WV (2) where C V, V V, T, and W V represent concentration of the compound in vesicular lysates supernatant (μM), volume of the lysates (μL), incubation time (10 min), and amount of vesicle protein amount per well (0.05 mg), respectively. Differential transport of the test Danshen compound between ATP-containing vesicles and AMP-containing vesicles was defined as net transport ratio (TransportATP/TransportAMP ratio). […] All the incubation samples were analyzed by liquid chromatography/mass spectrometry.
# rat Bsep = target: T2, rat Bsep (Rattus norvegicus, UniProt O70127); test: Vesicular transport assay, inside-out membrane vesicles expressing rat Bsep; details: positive substrate 20 μM, 10 min; rat Bsep
# T2 sequence (O70127 1-1321): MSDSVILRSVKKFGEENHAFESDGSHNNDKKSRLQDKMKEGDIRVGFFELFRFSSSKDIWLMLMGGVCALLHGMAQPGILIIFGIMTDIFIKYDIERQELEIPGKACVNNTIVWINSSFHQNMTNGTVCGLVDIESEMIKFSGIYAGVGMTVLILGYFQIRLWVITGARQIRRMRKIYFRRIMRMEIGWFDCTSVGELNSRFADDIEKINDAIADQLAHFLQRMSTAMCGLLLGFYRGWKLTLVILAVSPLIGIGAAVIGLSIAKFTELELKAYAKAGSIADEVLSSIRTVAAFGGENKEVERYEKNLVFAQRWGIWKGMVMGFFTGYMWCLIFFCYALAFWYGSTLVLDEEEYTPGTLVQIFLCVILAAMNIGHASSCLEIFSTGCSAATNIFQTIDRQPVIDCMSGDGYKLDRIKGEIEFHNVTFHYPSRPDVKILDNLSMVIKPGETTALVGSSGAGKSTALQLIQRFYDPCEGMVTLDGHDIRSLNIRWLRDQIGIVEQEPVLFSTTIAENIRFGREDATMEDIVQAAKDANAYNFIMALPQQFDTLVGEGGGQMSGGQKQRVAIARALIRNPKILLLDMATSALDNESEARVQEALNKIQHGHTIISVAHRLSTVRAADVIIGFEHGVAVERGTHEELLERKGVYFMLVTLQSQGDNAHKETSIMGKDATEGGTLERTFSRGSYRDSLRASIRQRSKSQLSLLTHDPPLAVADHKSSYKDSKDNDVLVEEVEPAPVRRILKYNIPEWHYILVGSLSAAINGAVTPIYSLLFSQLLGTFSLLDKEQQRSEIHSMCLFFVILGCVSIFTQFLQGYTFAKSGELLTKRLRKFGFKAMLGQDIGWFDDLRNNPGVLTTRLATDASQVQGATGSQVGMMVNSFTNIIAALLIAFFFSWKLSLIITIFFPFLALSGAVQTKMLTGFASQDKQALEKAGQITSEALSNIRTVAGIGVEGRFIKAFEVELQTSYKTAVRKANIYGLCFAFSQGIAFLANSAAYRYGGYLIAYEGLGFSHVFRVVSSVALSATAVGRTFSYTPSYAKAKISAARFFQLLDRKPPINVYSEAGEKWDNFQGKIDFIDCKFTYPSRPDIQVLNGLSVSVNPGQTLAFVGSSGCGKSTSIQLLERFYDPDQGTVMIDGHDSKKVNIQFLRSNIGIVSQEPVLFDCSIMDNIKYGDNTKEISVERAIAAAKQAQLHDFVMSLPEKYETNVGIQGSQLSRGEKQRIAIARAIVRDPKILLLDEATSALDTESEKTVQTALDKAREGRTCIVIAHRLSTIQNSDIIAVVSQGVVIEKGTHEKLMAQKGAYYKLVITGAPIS
# Description: as §1, §2
# rat Ntcp = target: T3, rat Ntcp (Rattus norvegicus, UniProt P26435); test: Cellular transport assay, HEK-293 cells expressing rat Ntcp; details: positive substrate 20 μM, 10 min; rat Ntcp
# T3 sequence (P26435 1-362): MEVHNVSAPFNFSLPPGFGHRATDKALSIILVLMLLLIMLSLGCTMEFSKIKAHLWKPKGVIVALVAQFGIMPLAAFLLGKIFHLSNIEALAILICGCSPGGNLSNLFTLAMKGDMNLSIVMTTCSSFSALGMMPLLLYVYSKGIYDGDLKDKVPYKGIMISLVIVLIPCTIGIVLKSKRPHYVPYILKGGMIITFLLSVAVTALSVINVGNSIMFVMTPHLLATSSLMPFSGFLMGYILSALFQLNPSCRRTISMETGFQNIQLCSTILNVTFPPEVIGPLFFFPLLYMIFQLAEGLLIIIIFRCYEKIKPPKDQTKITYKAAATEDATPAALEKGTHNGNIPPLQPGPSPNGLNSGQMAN
# human OATP2B1 = target: T4, human OATP2B1 (Homo sapiens, UniProt O94956); test: Cellular transport assay, HEK-293 cells expressing human OATP2B1; details: positive substrate 20 μM, 10 min; human OATP2B1
# T4 sequence (O94956 1-709): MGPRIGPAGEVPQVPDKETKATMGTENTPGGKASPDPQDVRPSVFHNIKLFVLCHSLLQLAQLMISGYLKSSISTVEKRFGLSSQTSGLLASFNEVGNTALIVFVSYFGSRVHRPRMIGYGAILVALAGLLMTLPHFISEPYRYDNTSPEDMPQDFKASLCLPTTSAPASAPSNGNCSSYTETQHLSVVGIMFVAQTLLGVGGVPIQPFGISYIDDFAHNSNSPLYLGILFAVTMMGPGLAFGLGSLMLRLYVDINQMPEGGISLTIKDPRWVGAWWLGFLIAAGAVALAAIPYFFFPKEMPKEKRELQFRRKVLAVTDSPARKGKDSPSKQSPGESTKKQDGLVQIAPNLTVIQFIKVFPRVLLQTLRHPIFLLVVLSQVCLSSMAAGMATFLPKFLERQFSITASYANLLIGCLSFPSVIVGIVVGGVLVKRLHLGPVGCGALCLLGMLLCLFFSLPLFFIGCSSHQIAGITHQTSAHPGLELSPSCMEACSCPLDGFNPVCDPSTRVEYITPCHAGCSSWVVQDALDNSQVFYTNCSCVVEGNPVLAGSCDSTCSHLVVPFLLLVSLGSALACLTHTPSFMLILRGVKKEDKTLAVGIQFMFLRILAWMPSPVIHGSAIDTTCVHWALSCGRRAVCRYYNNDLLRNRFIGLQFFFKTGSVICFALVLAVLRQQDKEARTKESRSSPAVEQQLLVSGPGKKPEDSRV
# human OAT3 = target: T5, human OAT3 (Homo sapiens, UniProt Q8TCC7); test: Cellular transport assay, HEK-293 cells expressing human OAT3; details: positive substrate 20 μM, 10 min; human OAT3
# T5 sequence (Q8TCC7 1-542): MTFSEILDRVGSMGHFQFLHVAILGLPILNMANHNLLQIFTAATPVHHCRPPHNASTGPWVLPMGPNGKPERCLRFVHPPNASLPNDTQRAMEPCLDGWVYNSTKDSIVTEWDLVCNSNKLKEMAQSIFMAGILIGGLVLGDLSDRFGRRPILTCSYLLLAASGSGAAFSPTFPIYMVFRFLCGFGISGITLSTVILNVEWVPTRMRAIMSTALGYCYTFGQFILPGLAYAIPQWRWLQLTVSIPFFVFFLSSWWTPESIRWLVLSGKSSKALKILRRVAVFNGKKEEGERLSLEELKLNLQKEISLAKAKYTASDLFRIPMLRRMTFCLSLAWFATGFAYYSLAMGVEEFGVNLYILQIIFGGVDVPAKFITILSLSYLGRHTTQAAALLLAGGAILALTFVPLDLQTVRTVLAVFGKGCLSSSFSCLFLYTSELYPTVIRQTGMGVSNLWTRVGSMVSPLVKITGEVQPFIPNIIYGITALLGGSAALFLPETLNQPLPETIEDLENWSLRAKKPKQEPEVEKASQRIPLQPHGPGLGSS
# Description: (§3) Briefly, HEK-293 cells were grown, at 37°C and 5% CO2, in Dulbecco’s modified Eagle’s medium, which was fortified with 10% fetal bovine serum, 1% minimal essential medium nonessential amino acids, and 1% antibiotic-antimycotic solution. A day before transfection, cells were seeded onto 24-well poly-D-lysine-coated plates at a density of 2 × 10^5 cells per well. After incubation at 37°C and 5% CO2 for 24 h, the expression plasmid and the empty vector were introduced separately into the HEK293 cells with Lipofectamine 2000 transfection reagent (Invitrogen, Carlsbad, CA, United States), according to the manufacturer’s protocol to yield transporter-expressing cells and mock cells, respectively.
# (§4) Transport studies were performed 48 h after the transfection. […] Differential uptake between the transfected cells and mock cells was defined as net transport ratio (TransportTC/TransportMC ratio), where TransportTC and TransportMC are the transport rates of a test Danshen compound into transfected and mock cells, respectively. […] The determination was performed under linear uptake conditions by incubation for 5 min. Table 1 summarizes the final concentrations of the test Danshen compounds for different transporters. All the incubation samples were analyzed by liquid chromatography/mass spectrometry.
# (§5) GraFit software (version 5.0; Erithacus Software Ltd, Surrey, United Kingdom) was used to determine the K m and V max values by nonlinear regression analysis of initial transport rates as a function of substrate concentration.
# rat Oat3 = target: T6, rat Oat3 (Rattus norvegicus, UniProt Q9R1U7); test: Cellular transport assay, HEK-293 cells expressing rat Oat3; details: positive substrate 20 μM, 10 min; rat Oat3
# T6 sequence (Q9R1U7 1-536): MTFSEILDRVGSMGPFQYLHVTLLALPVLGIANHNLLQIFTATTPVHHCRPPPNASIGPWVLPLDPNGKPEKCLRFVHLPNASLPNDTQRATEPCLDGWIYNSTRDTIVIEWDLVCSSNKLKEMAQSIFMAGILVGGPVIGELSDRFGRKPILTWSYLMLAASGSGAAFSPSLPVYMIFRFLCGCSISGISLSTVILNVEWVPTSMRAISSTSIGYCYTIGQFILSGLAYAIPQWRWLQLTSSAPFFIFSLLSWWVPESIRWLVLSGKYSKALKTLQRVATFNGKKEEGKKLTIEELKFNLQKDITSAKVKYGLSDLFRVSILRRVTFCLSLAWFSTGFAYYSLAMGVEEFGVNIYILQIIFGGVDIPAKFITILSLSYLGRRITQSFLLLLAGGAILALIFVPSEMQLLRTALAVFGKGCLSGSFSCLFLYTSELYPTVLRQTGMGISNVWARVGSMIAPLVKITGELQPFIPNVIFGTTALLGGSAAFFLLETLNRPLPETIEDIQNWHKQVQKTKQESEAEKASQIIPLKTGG
# Description: as §3, §4, §5
# human OAT4 = target: T7, human OAT4 (Homo sapiens, UniProt Q9NSA0); test: Cellular transport assay, HEK-293 cells expressing human OAT4; details: positive substrate 20 μM, 10 min; human OAT4
# T7 sequence (Q9NSA0 1-550): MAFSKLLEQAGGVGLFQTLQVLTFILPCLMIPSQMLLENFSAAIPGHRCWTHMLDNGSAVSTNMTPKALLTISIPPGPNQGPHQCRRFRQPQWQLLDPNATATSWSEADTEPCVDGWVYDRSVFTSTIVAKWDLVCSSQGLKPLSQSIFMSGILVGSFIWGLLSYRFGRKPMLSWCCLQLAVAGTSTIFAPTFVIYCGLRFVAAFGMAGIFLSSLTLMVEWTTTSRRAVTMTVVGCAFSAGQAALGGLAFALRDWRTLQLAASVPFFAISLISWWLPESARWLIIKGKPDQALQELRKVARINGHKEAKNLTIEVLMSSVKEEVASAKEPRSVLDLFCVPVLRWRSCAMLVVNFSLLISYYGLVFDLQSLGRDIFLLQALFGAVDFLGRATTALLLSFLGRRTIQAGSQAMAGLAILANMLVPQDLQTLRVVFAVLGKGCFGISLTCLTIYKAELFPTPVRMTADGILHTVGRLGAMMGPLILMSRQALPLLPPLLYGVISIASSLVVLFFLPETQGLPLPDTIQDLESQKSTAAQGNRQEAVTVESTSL
# Description: as §3, §4, §5
SMILES,"TransportTC/TransportMC ratio, positive substrate (human NTCP)","TransportATP/TransportAMP ratio, positive substrate (human BSEP)","TransportATP/TransportAMP ratio, positive substrate (rat Bsep)","TransportTC/TransportMC ratio, positive substrate (rat Ntcp)","TransportTC/TransportMC ratio, positive substrate (human OATP2B1)","TransportTC/TransportMC ratio, positive substrate (human OAT3)","TransportTC/TransportMC ratio, positive substrate (rat Oat3)","TransportTC/TransportMC ratio, positive substrate (human OAT4)"
"C[C@H](CCC(=O)NCCS(=O)(=O)O)[C@H]1CC[C@H]2[C@@H]3[C@H](O)C[C@@H]4C[C@H](O)CC[C@]4(C)[C@H]3C[C@H](O)[C@]12C [TCA, taurocholic acid, reference compound]",144 ± 30 (TCA),4.03 ± 0.89 (TCA),5.14 ± 0.88 (TCA),134 ± 15 (TCA),,,,
"C[C@]12CC[C@@H]3c4ccc(OS(=O)(=O)O)cc4CC[C@H]3[C@@H]1CCC2=O [E1S, estrone-3-sulfate, reference compound]",,,,,41.1 ± 1.5 (E1S),10.2 ± 1.2 (E1S),21.4 ± 6.8 (E1S),7.69 ± 1.74 (E1S)
